# Assay results: patent US20230085307A1, “PYRIDAZINONE COMPOUND AND HERBICIDE” (NISSAN CHEMICAL CORPORATION, priority 2019, published 2023)
# Experiments:
# [1] = system: Italian ryegrass; test: Test Example 5: herbicidal effect by foliage application, plastic box (Table 20, symbol K); format: in vivo, Italian ryegrass (Lolium multiflorum); settings: foliage application, 320 g/ha, 3 weeks after application
# Summary of the method: (§1)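 Foliar spray test: emulsion formulation diluted in water to a set application rate, sprayed onto 14-day-old plants raised in diluvial soil at 25° C to 30° C under glass. Both herbicidal effect and crop effect rated visually three weeks later.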
# [2] = system: redroot pigweed; test: Test Example 4: herbicidal effect by soil treatment (Table 19, symbol N); format: in vivo, redroot pigweed (Amaranthus retroflexus); settings: for herbicidal effect rating, N: redroot pigweed: 320 g/ha
# Summary of the method: (§2)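 Step 1: sow seeds in sterilized diluvial soil, cover ~1.5 cm. Step 2: spray diluted emulsion onto soil surface at predetermined rate. Step 3: greenhouse, 25–30° C, three weeks. Step 4: grade effect on each plant by earlier criteria.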
# [3] = system: velvetleaf; test: Test Example 4: herbicidal effect by soil treatment (Table 19, symbol M); format: in vivo, velvetleaf (Abutilon theophrasti); settings: for herbicidal effect rating, M: velvetleaf: 320 g/ha
# Summary of the method: as §2
# [4] = system: green foxtail; test: Test Example 4: herbicidal effect by soil treatment (Table 19, symbol G); format: in vivo, green foxtail (Setaria viridis); settings: for herbicidal effect rating, G: green foxtail: 320 g/ha
# Summary of the method: as §2
# [5] = system: persian speedwell; test: Test Example 5: herbicidal effect by foliage application, plastic box (Table 20, symbol R); format: in vivo, Persian speedwell (Veronica persica); settings: foliage application, 320 g/ha, 3 weeks after application
# Summary of the method: as §1
# [6] = system: lambsquarters; test: Test Example 4: herbicidal effect by soil treatment (Table 19, symbol O); format: in vivo, lambsquarters (Chenopodium album); settings: for herbicidal effect rating, O: lambsquarters: 320 g/ha
# Summary of the method: as §2
# [7] = system: chickweed; test: Test Example 4: herbicidal effect by soil treatment (Table 19, symbol P); format: in vivo, common chickweed (Stellaria media); settings: for herbicidal effect rating, P: chickweed: 320 g/ha
# Summary of the method: as §2
# [8] = system: windgrass; test: Test Example 4: herbicidal effect by soil treatment (Table 19, symbol L); format: in vivo, windgrass (Apera spica-venti); settings: for herbicidal effect rating, L: windgrass: 320 g/ha
# Summary of the method: as §2
# [9] = system: velvetleaf; test: Test Example 5: herbicidal effect by foliage application, plastic box (Table 20, symbol M); format: in vivo, velvetleaf (Abutilon theophrasti); settings: foliage application, 320 g/ha, 3 weeks after application
# Summary of the method: as §1
# [10] = system: blackgrass; test: Test Example 5: herbicidal effect by foliage application, plastic box (Table 20, symbol J); format: in vivo, blackgrass (Alopecurus myosuroides); settings: foliage application, 320 g/ha, 3 weeks after application
# Summary of the method: as §1
# [11] = system: Italian ryegrass; test: Test Example 4: herbicidal effect by soil treatment (Table 19, symbol K); format: in vivo, Italian ryegrass (Lolium multiflorum); settings: for herbicidal effect rating, K: Italian ryegrass: 320 g/ha
# Summary of the method: as §2
# [12] = system: green foxtail; test: Test Example 5: herbicidal effect by foliage application, plastic box (Table 20, symbol G); format: in vivo, green foxtail (Setaria viridis); settings: foliage application, 320 g/ha, 3 weeks after application
# Summary of the method: as §1
# [13] = system: Chinese sprangletop; test: Test Example 3: herbicidal effect by foliage application, Wagner pot (Table 18, symbol D); format: in vivo, chinese sprangletop (Leptochloa chinensis); settings: 320 g/ha
# Summary of the method: (§3)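 Plants were sown in alluvial soil held under 0.1–0.5 cm standing water and grown 14 days in a greenhouse at 25–30 °C. An emulsifiable formulation, water-diluted to the set dose, was then sprayed onto the foliage, and effects were scored three weeks later using previously defined criteria.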
# [14] = system: barnyard grass; test: Test Example 3: herbicidal effect by foliage application, Wagner pot (Table 18, symbol H); format: in vivo, barnyard grass (Echinochloa crus-galli); settings: 320 g/ha
# Summary of the method: as §3
# [15] = system: southern crabgrass; test: Test Example 5: herbicidal effect by foliage application, plastic box (Table 20, symbol F); format: in vivo, southern crabgrass (Digitaria ciliaris); settings: foliage application, 320 g/ha, 3 weeks after application
# Summary of the method: as §1
# [16] = system: southern crabgrass; test: Test Example 4: herbicidal effect by soil treatment (Table 19, symbol F); format: in vivo, southern crabgrass (Digitaria ciliaris); settings: for herbicidal effect rating, F: southern crabgrass: 320 g/ha
# Summary of the method: as §2
# [17] = system: windgrass; test: Test Example 5: herbicidal effect by foliage application, plastic box (Table 20, symbol L); format: in vivo, windgrass (Apera spica-venti); settings: foliage application, 320 g/ha, 3 weeks after application
# Summary of the method: as §1
# [18] = system: blackgrass; test: Test Example 4: herbicidal effect by soil treatment (Table 19, symbol J); format: in vivo, blackgrass (Alopecurus myosuroides); settings: for herbicidal effect rating, J: blackgrass: 320 g/ha
# Summary of the method: as §2
# [19] = system: rice flat sedge; test: Test Example 3: herbicidal effect by foliage application, Wagner pot (Table 18, symbol E); format: in vivo, rice flat sedge (Cyperus iria); settings: 320 g/ha
# Summary of the method: as §3
# [20] = system: persian speedwell; test: Test Example 4: herbicidal effect by soil treatment (Table 19, symbol R); format: in vivo, Persian speedwell (Veronica persica); settings: for herbicidal effect rating, R: persian speedwell: 320 g/ha
# Summary of the method: as §2
# [21] = system: barnyard grass; test: Test Example 4: herbicidal effect by soil treatment (Table 19, symbol H); format: in vivo, barnyard grass (Echinochloa crus-galli); settings: for herbicidal effect rating, H: barnyard grass: 320 g/ha
# Summary of the method: as §2
# [22] = system: lambsquarters; test: Test Example 5: herbicidal effect by foliage application, plastic box (Table 20, symbol O); format: in vivo, lambsquarters (Chenopodium album); settings: foliage application, 320 g/ha, 3 weeks after application
# Summary of the method: as §1
# [23] = system: wild oat; test: Test Example 4: herbicidal effect by soil treatment (Table 19, symbol I); format: in vivo, wild oat (Avena fatua); settings: for herbicidal effect rating, I: wild oat: 320 g/ha
# Summary of the method: as §2
# [24] = system: barnyard grass; test: Test Example 5: herbicidal effect by foliage application, plastic box (Table 20, symbol H); format: in vivo, barnyard grass (Echinochloa crus-galli); settings: foliage application, 320 g/ha, 3 weeks after application
# Summary of the method: as §1
# [25] = system: wild oat; test: Test Example 5: herbicidal effect by foliage application, plastic box (Table 20, symbol I); format: in vivo, wild oat (Avena fatua); settings: foliage application, 320 g/ha, 3 weeks after application
# Summary of the method: as §1
SMILES,effect on Italian ryegrass (K) [1],effect on persian speedwell (R) [5],effect on velvetleaf (M) [9],effect on blackgrass (J) [10],effect on green foxtail (G) [12],"herbicidal effect on D (Chinese sprangletop), rating 0-5 [13]","herbicidal effect on H (barnyard grass), rating 0-5 [14]",effect on southern crabgrass (F) [15],effect on windgrass (L) [17],"herbicidal effect on E (rice flat sedge), rating 0-5 [19]",effect on lambsquarters (O) [22],effect on barnyard grass (H) [24],effect on wild oat (I) [25],"herbicidal effect rating, N: redroot pigweed [2]","herbicidal effect rating, M: velvetleaf [3]","herbicidal effect rating, G: green foxtail [4]","herbicidal effect rating, O: lambsquarters [6]","herbicidal effect rating, P: chickweed [7]","herbicidal effect rating, L: windgrass [8]","herbicidal effect rating, K: Italian ryegrass [11]",other results
COCCSCc1ccc(-c2sc3ccccc3c2-c2c(O)c(C)nn(C)c2=O)cc1 [1-251],4 (Herbicidal rate of 70% or more and less than 90%),5 (Herbicidal rate of 90% or more (almost completely withered)),5 (Herbicidal rate of 90% or more (almost completely withered)),3 (Herbicidal rate of 40% or more and less than 70%),5 (Herbicidal rate of 90% or more (almost completely withered)),3 (Herbicidal rate of 40% or more and less than 70%),5 (Herbicidal rate of 90% or more (almost completely withered)),1 (Herbicidal rate of 5% or more and less than 20%),0 (Herbicidal rate of 5% or less (almost no effect)),3 (Herbicidal rate of 40% or more and less than 70%),4 (Herbicidal rate of 70% or more and less than 90%),4 (Herbicidal rate of 70% or more and less than 90%),0 (Herbicidal rate of 5% or less (almost no effect)),,,,,,,,"N: redroot pigweed, herbicidal effect rating ([2]; AAH 320 g/ha): 0 (Herbicidal rate of 5% or less (almost no effect)); M: velvetleaf, herbicidal effect rating ([3]; AAH 320 g/ha): 0 (Herbicidal rate of 5% or less (almost no effect)); G: green foxtail, herbicidal effect rating ([4]; AAH 320 g/ha): 0 (Herbicidal rate of 5% or less (almost no effect)); O: lambsquarters, herbicidal effect rating ([6]; AAH 320 g/ha): 0 (Herbicidal rate of 5% or less (almost no effect)); P: chickweed, herbicidal effect rating ([7]; AAH 320 g/ha): 0 (Herbicidal rate of 5% or less (almost no effect)); L: windgrass, herbicidal effect rating ([8]; AAH 320 g/ha): 0 (Herbicidal rate of 5% or less (almost no effect)); K: Italian ryegrass, herbicidal effect rating ([11]; AAH 320 g/ha): 0 (Herbicidal rate of 5% or less (almost no effect)); F: southern crabgrass, herbicidal effect rating ([16]; AAH 320 g/ha): 0 (Herbicidal rate of 5% or less (almost no effect)); J: blackgrass, herbicidal effect rating ([18]; AAH 320 g/ha): 0 (Herbicidal rate of 5% or less (almost no effect)); R: persian speedwell, herbicidal effect rating ([20]; AAH 320 g/ha): 4 (Herbicidal rate of 70% or more and less than 90%); H: barnyard grass, herbicidal effect rating ([21]; AAH 320 g/ha): 0 (Herbicidal rate of 5% or less (almost no effect)); I: wild oat, herbicidal effect rating ([23]; AAH 320 g/ha): 0 (Herbicidal rate of 5% or less (almost no effect))"
C=Cc1ccc(-c2sc3ccc(F)cc3c2-c2c(OC(=O)CCC)c(C)nn(C)c2=O)cc1 [2-019],3 (Herbicidal rate of 40% or more and less than 70%),5 (Herbicidal rate of 90% or more (almost completely withered)),5 (Herbicidal rate of 90% or more (almost completely withered)),0 (Herbicidal rate of 5% or less (almost no effect)),5 (Herbicidal rate of 90% or more (almost completely withered)),3 (Herbicidal rate of 40% or more and less than 70%),5 (Herbicidal rate of 90% or more (almost completely withered)),4 (Herbicidal rate of 70% or more and less than 90%),4 (Herbicidal rate of 70% or more and less than 90%),4 (Herbicidal rate of 70% or more and less than 90%),5 (Herbicidal rate of 90% or more (almost completely withered)),5 (Herbicidal rate of 90% or more (almost completely withered)),4 (Herbicidal rate of 70% or more and less than 90%),5 (Herbicidal rate of 90% or more (almost completely withered)),0 (Herbicidal rate of 5% or less (almost no effect)),2 (Herbicidal rate of 20% or more and less than 40%),3 (Herbicidal rate of 40% or more and less than 70%),4 (Herbicidal rate of 70% or more and less than 90%),1 (Herbicidal rate of 5% or more and less than 20%),5 (Herbicidal rate of 90% or more (almost completely withered)),"herbicidal effect rating, F: southern crabgrass [16]: 0 (Herbicidal rate of 5% or less (almost no effect)); herbicidal effect rating, J: blackgrass [18]: 0 (Herbicidal rate of 5% or less (almost no effect)); herbicidal effect rating, R: persian speedwell [20]: 5 (Herbicidal rate of 90% or more (almost completely withered)); herbicidal effect rating, H: barnyard grass [21]: 0 (Herbicidal rate of 5% or less (almost no effect)); herbicidal effect rating, I: wild oat [23]: 0 (Herbicidal rate of 5% or less (almost no effect))"
Cc1nn(C)c(=O)c(-c2c(-c3ccc(OC(F)(F)F)cc3)sc3ccc(F)cc23)c1O [2-045],5 (Herbicidal rate of 90% or more (almost completely withered)),5 (Herbicidal rate of 90% or more (almost completely withered)),5 (Herbicidal rate of 90% or more (almost completely withered)),0 (Herbicidal rate of 5% or less (almost no effect)),5 (Herbicidal rate of 90% or more (almost completely withered)),2 (Herbicidal rate of 20% or more and less than 40%),5 (Herbicidal rate of 90% or more (almost completely withered)),0 (Herbicidal rate of 5% or less (almost no effect)),5 (Herbicidal rate of 90% or more (almost completely withered)),5 (Herbicidal rate of 90% or more (almost completely withered)),5 (Herbicidal rate of 90% or more (almost completely withered)),5 (Herbicidal rate of 90% or more (almost completely withered)),0 (Herbicidal rate of 5% or less (almost no effect)),4 (Herbicidal rate of 70% or more and less than 90%),4 (Herbicidal rate of 70% or more and less than 90%),4 (Herbicidal rate of 70% or more and less than 90%),5 (Herbicidal rate of 90% or more (almost completely withered)),5 (Herbicidal rate of 90% or more (almost completely withered)),0 (Herbicidal rate of 5% or less (almost no effect)),5 (Herbicidal rate of 90% or more (almost completely withered)),"herbicidal effect rating, F: southern crabgrass [16]: 3 (Herbicidal rate of 40% or more and less than 70%); herbicidal effect rating, J: blackgrass [18]: 0 (Herbicidal rate of 5% or less (almost no effect)); herbicidal effect rating, R: persian speedwell [20]: 5 (Herbicidal rate of 90% or more (almost completely withered)); herbicidal effect rating, H: barnyard grass [21]: 1 (Herbicidal rate of 5% or more and less than 20%); herbicidal effect rating, I: wild oat [23]: 0 (Herbicidal rate of 5% or less (almost no effect))"
